# From patent publication US4322423A, “4-Phenyl-4,5,6,7-tetrahydro-thieno(2,3-C)pyridines and salts thereof” (Boehringer Ingelheim GmbH, priority 1977, dated 1982)
# Read-outs that look alike come from different tables or passages of the source.
# Key:
# [1] = test system: uptake of noradrenaline in the neurons; assay: inhibition of noradrenaline uptake, synaptosomes from homogenized isolated cerebrum of the rat; format: biochemical; conditions: ten minutes at 37° C., 50% uptake inhibition, read-out: Noradrenalin inhibition IC 50
# Experimental: (§1) It is known that various forms of depressions cause in certain sections of the brain a deficiency of biogenetic amines, especially of noradrenaline and serotonine; the biogenetic amines may be multiplied by inhibiting the uptake in the neurons. […] The test is performed on the homogenized, isolated cerebrum of the rat. A suspension of synaptosomes thus obtained is incubated with […] noradrenaline or serotonine and various concentrations of a solution of the test substance in water for ten minutes at 37° C. After completion of the incubation, the medium is separated by filtering, and the radioactivity of the suspension of synaptosomes is measured. A control test without test substance is made simultaneously in order to determine the quantity of uptake of the radioactive amines. The quantity of the test substance in mols which suffices for inhibiting 50% of the uptake is designated as IC 50.
# [2] = test system: uptake of serotonine in the neurons; assay: inhibition of serotonine uptake, synaptosomes from homogenized isolated cerebrum of the rat; format: biochemical; conditions: ten minutes at 37° C., 50% uptake inhibition, read-out: Serotinine inhibition IC 50
# Experimental: as §1
# [3] = test system: hypothermic effect caused by reserpine; assay: reserpine-antagonism, elimination of the hypothermic effect caused by reserpine; format: in vivo; conditions: Mus musculus, mice, oral, 17 hours after 2 mg/kg i.p. reserpine
# Experimental: A further test for determining the anti-depressant activity is the reserpine-antagonism, the elimination of the hypothermic effect caused by reserpine. The test is carried out on mice, using 5 animals per dose. 17 Hours after i.p. administration of 2 mg/kg of reserpine, the body temperature is measured peripherally at a room temperature of 19° C. Afterwards, the test substance is administered orally, and the body temperature is measured after elapse of 1, 3, 5, and 7 hours. For each measurement a medium effective dose (ED50) is determined. This is the dose at which the body temperature of the animals treated with reserpine approaches the normal temperature of the untreated controls by 50%.
# [4] = 1 hr., read-out: Reserpine antagonism ED50 after 1 hr.
# [5] = 3 hrs., read-out: Reserpine antagonism ED50 after 3 hrs.
# [6] = 5 hrs., read-out: Reserpine antagonism ED50 after 5 hrs.
# [7] = 7 hrs., read-out: Reserpine antagonism ED50 after 7 hrs.
SMILES,IC50 [1] [nM],IC50 [2] [µM],"ED50 [3, 4] [mg/kg]","ED50 [3, 5] [mg/kg]","ED50 [3, 6] [mg/kg]","ED50 [3, 7] [mg/kg]"
"Cc1ccc(C2CN(C)Cc3sc(Br)cc32)cc1.Cl (stereo not drawn) [2-bromo-4-(p-tolyl)-6-methyl-4,5,6,7-tetrahydro thieno[2,3-c] pyridine hydrochloride]",640,9,48,80,80,80
"CN1Cc2sc(Cl)cc2C(c2ccc(Br)cc2)C1.Cl (stereo not drawn) [2-chloro-4-(4-bromophenyl)-6-methyl-4,5,6,7-tetrahydro-thieno[2,3-c] pyridine hydrochloride]",1000,3.5,50,3,4.2,38
"CN1Cc2sc(Br)cc2C(c2ccc(Br)cc2)C1 (stereo not drawn) [2-bromo-4-(p-bromophenyl)-6-methyl-4,5,6,7-tetrahydro-thieno[2,3-c]pyridine]",1600,4.1,55,7.5,32,100
"Cc1cc2c(s1)CN(C)CC2c1ccccc1.Cl (stereo not drawn) [2,6-dimethyl-4-phenyl-4,5,6,7-tetrahydro-thieno[2,3-c]pyridine hydrochloride]",560,80,19,25,80,80
"Cc1cc2c(s1)CN(C)CC2c1ccc(Br)cc1.Cl (stereo not drawn) [2,6-Dimethyl-4-(p-bromophenyl)-4,5,6,7-tetrahydro-thieno[2,3-c]pyridine hydrochloride]",280,0.54,1.7,2.7,4.6,80
"CN1Cc2sc(Cl)cc2C(c2ccc(Cl)cc2)C1.Cl (stereo not drawn) [2-Chloro-4-(p-chloro-phenyl)-6-methyl-4,5,6,7-tetrahydro-thieno[2,3-c]pyridine hydrochloride]",1600,5.4,16,8.5,9.5,10
"Cc1ccc(C2CN(C)Cc3sc(Cl)cc32)cc1.Cl (stereo not drawn) [2-chloro-4-(p-tolyl)-6-methyl-4,5,6,7-tetrahydro-thieno[2,3-c] pyridine hydrochloride]",900,> 10,44,12.5,18,20
"CN1Cc2sc(Cl)cc2C(c2ccccc2)C1.Cl (stereo not drawn) [2-Chloro-4-phenyl-6-methyl-4,5,6,7-tetrahydro-thieno[2,3-c]pyridine hydrochloride]",1400,> 10,13,30,90,90
